Experimental data from PubChem BioAssay AID2305 (GlaxoSmithKline (GSK), 2010).
Where “and” joins values, the source holds several entries; their conditions need not be identical. Identical values can stand only once.

These compounds were tested on P. falciparum 3D7 growth, pLDH absorbance (assay: P. falciparum 3D7 growth inhibition, dose response, strain 3D7 (AID 2305)).
In the case of `O=S(=O)(c1ccc2cc[nH]c2c1)N1CCC[C@@H]1CCN1CCC(c2c[nH]c3cnccc23)CC1`, the IC50 is reported as 1020 nM.
With `COc1ccc(-c2ccc(CNC(=O)c3ccc(Cl)cc3)c(F)c2)cc1CN1CCCN(C)CC1` the IC50 was 710 nM.
Compound `CC(=O)Nc1ccc(CN2CCC(N(C)c3cc(NC(=O)c4cccc(F)c4)ccn3)CC2)cc1` has an IC50 of 1380 nM.
For `COC(=O)c1ccc(CC(C)NCC(O)c2cccc(C(F)(F)F)c2)cc1F` (stereo not drawn), the IC50 was 1060 nM.
For `COc1ccc2c(c1)CC1CN(CCCCNC(=O)c3ccc(NC(=O)c4cc(Cl)cc(Cl)c4)cc3)CCN1C2` (stereo not drawn), the IC50 was 770 nM.
Compound `CCCS(=O)(=O)N1CCC(CO)(Cc2ccccc2C(F)(F)F)CC1` has an IC50 of 890 nM.
`Cc1nc2ccc(-c3nc4ccc(N)cc4[nH]3)cc2[nH]1` was tested, and the IC50 was 230 nM.
Compound `CN(C)c1ccc(CN2CCC(NC(=O)c3ccc(-c4cccc(C(F)(F)F)c4)s3)CC2)cc1` has an IC50 of 1150 nM.
With `COc1cc(CCCON2C(N)=NC(N)=NC2(C)C)cc(OC)c1OC` the IC50 was 40 nM.
`COCC(=O)N(Cc1ccccc1-c1cccc(CNCCc2ccccc2)c1)C1CCN(Cc2ccccc2)CC1` was tested, and the IC50 was 1100 nM.
In the case of `Nc1nc(N)c2c3c(cnc2n1)CCCC3`, the IC50 is reported as 770 nM.
`Cn1nccc1C(=O)NCCNCc1cccc(-c2ccc(-c3nc4ccccc4[nH]3)cc2)c1` showed an IC50 of 470 nM.
`CN1CCN(CC(=O)Nc2ccc(-c3ccc(-c4nc5ccc(C(F)(F)F)cc5[nH]4)s3)cc2)CC1` gave an IC50 of 570 nM.
Work on `CNCc1cccc2[nH]c(-c3ccc(Cc4cc(Cl)ccc4OCC(C)C)o3)nc12` yielded an IC50 of 900 nM.
In the case of `CCOC(=O)c1ccc(NC(=O)N(Cc2ccc(-c3cccc(CN4CCNCC4)c3)cc2)C2CCN(Cc3ccccc3)CC2)cc1`, the IC50 is reported as 750 nM.
In the case of `CCCN1CCC2(CC1)NC(C(=O)NCCC(C)C)Cc1c2[nH]c2cc(Cl)ccc12` (stereo not drawn), the IC50 is reported as 1380 nM.
In the case of `CCC(CO)NCC(O)Cn1c2ccc(Br)cc2c2cc(Br)ccc21` (stereo not drawn), the IC50 is reported as 780 nM.
In the case of `CN1CCC(N(Cc2ccc(-c3ccc(C(F)(F)F)cc3)cc2)C(=O)Cn2c(SCc3cccc(F)c3F)cc(=O)c3c2CCC3)CC1`, the IC50 is reported as 160 nM.
In the case of `Nc1ncc(OC2CCCCC2)c(N)n1`, the IC50 is reported as 1070 nM.
Compound `CC(C)CNc1nc(N)nc2ccc3c(ccn3CC(C)C)c12` has an IC50 of 650 nM.
`Cc1ccccc1C1CCN(c2ccc(C(=O)Nc3ccc(F)cc3)cn2)CC1` showed an IC50 of 190 nM.
`Cc1cccc2[nH]c(-c3ccc(-c4ccc(CN5CCCC(O)C5)cc4)cc3)nc12` (stereo not drawn) showed an IC50 of 860 nM.
`COc1ccc(C=NNc2cc(C)nc3ccccc23)c(OC)c1` gave an IC50 of 620 nM.
Compound `Nc1ccncc1C(=O)NCCCCN1CCN(c2nsc3ccccc23)CC1` has an IC50 of 800 nM.
`COc1ccc2ncc(F)c(CCN3CCC(NCc4cnc5c(c4)NC(=O)CS5)CC3)c2c1` was tested, and the IC50 was 570 nM.
`c1ccc(-c2cc3cccc(-c4nc5ccncc5[nH]4)c3o2)cc1` gave an IC50 of 110 nM.
`COc1ccc2nc(-c3cc(-c4ccc(NC(C)=O)cc4)cnc3N)[nH]c2c1` was tested, and the IC50 was 1240 nM.
In the case of `COc1c(C2CCN(CCCCNC(=O)c3ccc(-c4ccc(C#N)cc4)cc3)CC2)cc(Cl)c2c1CCCC2`, the IC50 is reported as 780 nM.
Compound `COc1ccc(-c2ccc(NC(=O)c3cccc(C#N)c3)cc2)cc1CN1CCNCC1` has an IC50 of 730 nM.
With `CCN1CCC(N(Cc2ccc(-c3ccc(C(F)(F)F)cc3)cc2)C(=O)Cn2c(CCc3cccc(F)c3F)nc(=O)c3ccccc32)CC1` the IC50 was 1060 nM.
`CN1CCN(c2ccc(-c3cccc(NC(=O)c4ccc5ccccc5c4)c3)nn2)CC1` gave an IC50 of 380 nM.
With `COc1cccc(-c2ccc3c(-c4cccc(NC(C)=O)c4)cnc(N)c3c2)c1` the IC50 was 110 nM.
`O=C(/C=C/c1ccc(Cl)c(Cl)c1)N1CCC(CN2CCC(c3c[nH]c4cc(C(F)(F)F)ccc34)CC2)CC1` gave an IC50 of 800 nM.
`Nc1ccc(-c2ccc3ccnc(N)c3c2)cn1` showed an IC50 of 350 nM.
Compound `CCCCCCc1cc(Oc2c(I)cc(C[C@H](N)C(=O)O)cc2I)ccc1O` has an IC50 of 910 nM.
In the case of `O=C(/C=C/c1ccc(Cl)c(Cl)c1)NCCCCCN1[C@@H]2CC[C@H]1CC(c1c[nH]c3ccc(O)cc13)C2` (stereo partly drawn), the IC50 is reported as 880 nM and 1000 nM.
`CS(=O)(=O)Cc1ccc(Nc2nccc(-c3c(-c4cccc(NC(=O)C5CCCCC5)c4)nn4ncccc34)n2)cc1` showed an IC50 of 200 nM.
`CN(CCCCN)Cc1ccc(-c2ccc(Cl)cc2)cc1` gave an IC50 of 880 nM.
Work on `O=c1cc(NCCCNC(c2ccccc2)c2ccc(Cl)c(Cl)c2)[nH]c2ccccc12` (stereo not drawn) yielded an IC50 of 1140 nM.
In the case of `CC(C)(C(=O)Nc1ccc(C2CCC(NCC3CC3)CC2)c(Cl)c1)c1cccc(OC(F)F)c1` (stereo not drawn), the IC50 is reported as 970 nM.
Work on `CC[C@H]1CN(CCCn2c3ccccc3c3ccccc32)[C@@H](CC)CN1` yielded an IC50 of 1080 nM.
`O=C(NCc1ccc(C(=O)NC2CCCCC2)cc1)c1ccc(O)c(-c2ccc(Cl)c(Cl)c2)c1` showed an IC50 of 880 nM.
In the case of `CCC[C@@H]([C@@H](CC(C)C)C(=O)N[C@@H](CCCN=C(N)NS(C)(=O)=O)C(=O)Nc1nccs1)N(O)C=O`, the IC50 is reported as 940 nM.
In the case of `COc1ccc2nccc(NN=Cc3ccccc3F)c2c1`, the IC50 is reported as 620 nM.
With `CO/C(=C\C=C\c1cc2cc(Cl)c(Cl)cc2[nH]1)C(=O)NCCCN1CCN(c2cccc(OCC(=O)Nc3cccc(C(=O)c4ccccc4)c3)c2)CC1` the IC50 was 690 nM.
`Nc1n[nH]c(-c2ccccc2Nc2ccnc3cc(-c4nccs4)ccc23)n1` showed an IC50 of 1120 nM.
`N#Cc1ccc(N2CCN(Cc3cccc(-c4cccc(-c5nc6ccc(F)cc6[nH]5)c4)c3)CC2)nc1` gave an IC50 of 960 nM.
`Cc1[nH]c(C)c(-c2ccc(S(=O)(=O)c3ccc(Cl)cc3)cc2)c(=O)c1Cl` showed an IC50 of 140 nM.
With `COc1cc(Cc2cnc(N)nc2N)ccc1Oc1ccc(N)cc1` the IC50 was 870 nM.
For `CN(C)CCOc1cc(NC(=O)Nc2cccc([N+](=O)[O-])c2)ccc1I`, the IC50 was 740 nM.
`CC(c1cccc(Nc2nccc(-c3c(-c4cccc(NC(=O)c5c(F)cccc5F)c4)nn4ncccc34)n2)c1)S(C)(=O)=O` (stereo not drawn) gave an IC50 of 50 nM.
With `Cc1ncsc1CCN1C(=O)CC2(C1=O)C(=O)N(Cc1ccccc1)c1ccc(Cl)cc12` (stereo not drawn) the IC50 was 980 nM.
`COc1ccc2nccc([C@@H](O)CN3CCC(NCc4cc5c(F)ccc(F)c5[nH]4)CC3)c2c1` was tested, and the IC50 was 140 nM.
`CCCN(CCC)C(=O)c1cc(C(=O)N[C@@H](Cc2ccccc2)[C@H](O)CNCc2cccc(OC)c2)cc(N2CCCCS2(=O)=O)c1` gave an IC50 of 550 nM.
In the case of `c1ccc(CN2CCC(NCc3ccc(-c4cncc5ccccc45)cc3)CC2)cc1`, the IC50 is reported as 880 nM.
With `COc1ccc(-c2ccc(S(=O)(=O)Nc3cc4c(cc3OC(C)C)CCNCC4)cc2)cc1` the IC50 was 970 nM.
Compound `O=C(CCc1cnc[nH]1)Nc1ccc(-c2ccc(-c3nc4ccccc4[nH]3)cc2)cc1` has an IC50 of 710 nM.
For `C=CCc1cc(Cc2cnc(N)nc2N)cc(CCC)c1OC`, the IC50 was 1360 nM.
Compound `Cc1cccc2[nH]c(-c3ccc(-c4ccc(CNCc5ccccc5)cc4)s3)nc12` has an IC50 of 210 nM.
Work on `Cc1cc(F)ccc1[C@H]1CNCCN1C(=O)N(C)[C@@H](C)c1cc(C(F)(F)F)cc(C(F)(F)F)c1` yielded an IC50 of 230 nM.
`CCCCCC(C)C(C)c1cc(O)c2c(c1)OC(C)(C)CC2=Cc1ccncc1` (stereo not drawn) gave an IC50 of 210 nM.
With `Nc1ncnc2occ(-c3ccc(NC(=O)Nc4cc(C(F)(F)F)ccc4F)cc3)c12` the IC50 was 1720 nM.
With `Cc1cc2cc(CNCCc3ccccc3Br)ccc2nc1N` the IC50 was 240 nM.
Work on `COc1cccc(CN2CCCC(CCC(=O)Nc3ccc(C(F)(F)F)cc3)C2)c1O` (stereo not drawn) yielded an IC50 of 750 nM.
For `COc1cccc(C(=O)NC(C=Cc2ccccc2)c2cc(Cl)c3cccnc3c2O)c1` (stereo not drawn), the IC50 was 860 nM.
For `N#Cc1ccc2c(c1)CCN(CCC1CCC(NC(=O)c3cc4ccccc4[nH]3)CC1)CC2` (stereo not drawn), the IC50 was 1010 nM.
`Cc1nc(-c2nc(NCCc3ccncc3)ncc2-c2ccsc2)sc1C` gave an IC50 of 300 nM.
`CC(Cc1ccc(OCCN2CCN(c3cccc(Cl)c3)CC2)cc1)NCC(O)c1cccc(C(F)(F)F)c1` (stereo not drawn) gave an IC50 of 600 nM.
`CCCN(CCC)CCCCC(C)Nc1c2ccc(Cl)cc2nc2ccc(OC)cc12` (stereo not drawn) showed an IC50 of 140 nM.
`Cc1ccc2nc(-c3cc(-c4cccc(C#N)c4)cnc3N)[nH]c2c1` showed an IC50 of 120 nM.
`COc1ccc(-c2cc(C(=O)N[C@@H](CC3CCCCC3)C(=O)NC3CCCc4ccccc43)ccc2O)cc1` (stereo partly drawn) showed an IC50 of 690 nM.
`COc1ccc(-c2cncc3ccc(C(=O)NCc4ccncc4)nc23)cc1` showed an IC50 of 740 nM.
In the case of `CC[C@H]1CN2CC[C@@H]1C[C@H]2[C@H](O)c1cc(N2CCC(O)(c3ccccc3)CC2)nc2ccc(OC)cc12`, the IC50 is reported as 90 nM.
`CC(C)(C)Nc1nc(Nc2cccc([N+](=O)[O-])c2)nc(-n2ccnc2)n1` was tested, and the IC50 was 810 nM.
`Cc1cccc(-c2nc(Nc3ccncc3)c3ccc([N+](=O)[O-])cc3n2)n1` was tested, and the IC50 was 830 nM.
Compound `COc1ccc(-c2cccc(NC(=O)c3cccc(Cl)c3)c2)cc1CN1CCCC1` has an IC50 of 730 nM.
In the case of `O=C(NCCCCCN1CCC(c2c[nH]c3ccccc23)CC1)c1ccc(-c2ccccc2)nc1`, the IC50 is reported as 1020 nM.
Compound `O=C(/C=C/c1ccc(Cl)c(Cl)c1)Nc1cccc(CN2CCC(c3c[nH]c4ccccc34)CC2)c1` has an IC50 of 670 nM.
`Cn1c(N)c(C(=O)CSc2ncc(-c3ccc(F)cc3)n2Cc2ccccc2)c(=O)n(C)c1=O` was tested, and the IC50 was 570 nM.
Compound `CC(=O)c1ccc(-c2ccccc2)s1` has an IC50 of 1080 nM.
For `CCC[C@@H]([C@@H](CC1CCCCC1)C(=O)N[C@H](C(=O)Nc1ccccn1)[C@H](C)CC)N(O)C=O`, the IC50 was 530 nM.
Work on `CCOC(=O)c1cccc(NC(=O)Nc2cc(C)nc3ccccc23)c1` yielded an IC50 of 290 nM.
`COC(=O)Nc1nc2cc3c(cc2s1)OCCO3` showed an IC50 of 840 nM.
`COc1ccc(Cl)cc1NC(=O)C(C)Nc1ccc(-c2ccccc2)cc1` (stereo not drawn) was tested, and the IC50 was 560 nM.
For `O=C(/C=C/c1ccc(Cl)c(Cl)c1)N1CCN(C(=O)Nc2ccc(C(F)(F)F)cc2)CC1`, the IC50 was 670 nM.
Work on `N#Cc1cccc(-c2nc(NCc3cccc(C(F)(F)F)c3)nn2-c2cccc(C(F)(F)F)c2)c1` yielded an IC50 of 590 nM.
For `c1ccc2nc(NCCCCCCCCNc3ccc4ccccc4n3)ccc2c1`, the IC50 was 270 nM.
In the case of `Oc1ccc(CCNc2nc(NCCCOc3cccc(-c4ccccc4)c3)nc(N3CCNCC3)n2)cc1`, the IC50 is reported as 1130 nM.
With `CC(C)CCN1CCC(Oc2ccc(NC(=O)c3cccs3)cc2Cl)CC1` the IC50 was 340 nM.
`NC(N)=NC(=O)Nc1cc(Br)c(Cl)c(Br)c1` was tested, and the IC50 was 770 nM.
For `COc1cc(CCN=C(N)/C=C/c2ccc(Cl)cc2)ccc1Cl`, the IC50 was 240 nM.
With `CCc1cc(OC)c(C(=O)NC2CCN(C[C@H](O)c3ccnc4ccc(OC)cc34)CC2)cc1Br` the IC50 was 810 nM.
With `CCn1cc(C=C2Oc3c(ccc(O)c3CN3CCCCC3)C2=O)c2cc(OC)ccc21` the IC50 was 520 nM.
For `Cc1cccc2[nH]c(-c3ccc(-c4cccc(CNCc5cnn(-c6ccccc6)n5)c4)s3)nc12`, the IC50 was 550 nM.
`CC(C)c1ccc(NC(=O)NCCCC2CCCN(CCCCCNC(=O)/C=C/c3ccc(Cl)c(Cl)c3)C2)cc1` (stereo not drawn) gave an IC50 of 960 nM.
Compound `Cc1cc(CNCCCCCCCNCc2cccc([N+](=O)[O-])c2)ccc1O` has an IC50 of 640 nM.
Work on `Cc1ccc(C(=O)Nc2cc(S(=O)(=O)N3CCCC3)ccc2OCC(F)(F)F)cc1` yielded an IC50 of 850 nM.
`N#Cc1ccc(-c2ccc(C(=O)Nc3ccc4c(c3)CCN(C3CCC3)CC4)nc2)cc1` was tested, and the IC50 was 700 nM.
